Experimental data: PMC11129195, “Novel Re(I) Complexes as Potential Selective Theranostic Agents in Cancer Cells and In Vivo in Caenorhabditis elegans Tumoral Strains” (Journal of Medicinal Chemistry, 2024)

Experiments:
A2780 cells [1] = test: Mitochondrial membrane potential, JC-1 staining; assay type: cell-based, human; settings: Re9 1.25 and 2.5 μM, 24 h, antimycin A 6 h
Procedure: After the treatment period, the cells were collected and resuspended in prewarmed PBS containing JC-1 (1 μM). The cell suspension was then incubated for 30 min at 37 °C. Following the incubation, the cells were washed twice with PBS and immediately analyzed using a flow cytometer (FACSCAlibur Beckton Dickinson). Fluorescence measurements were performed by detecting both the monomeric (emission at 530 ± 30 nm; green) and aggregated (emission at 585 ± 30 nm; red) forms of JC-1 upon excitation at 488 nm. For each sample, a total of 10,000 events were acquired during the analysis.

HeLa = test: MTT antiproliferative activity in HeLa cells; assay type: cell-based, human; settings: MTT test, 48 h of treatment
Procedure: (§1) Human ovarian carcinoma cell lines (A2780) were cultured in RPMI-1640 medium, while the human cervix adenocarcinoma cell line (HeLa), tumor breast cancer cell line, and nontumorigenic buffalo green monkey cells (BGM) were cultured in DMEM and EMEM (containing nonessential amino acids) medium. The cell culture media were supplemented with 10% fetal bovine serum (FBS), 1% L-glutamine, and 1% penicillin/streptomycin. The cells were maintained in a humidified incubator at 37 °C with a 5% CO2 atmosphere and subcultured 2–3 times a week, each with an appropriate density for its specific cell line. Prior to the experiments, the cell lines were confirmed to be free from mycoplasma contamination using Hoechst DNA staining standard procedures. During cell-based assays, the maximum amount of dimethyl sulfoxide (DMSO) added as a solvent for treatment was limited to 0.4% (v/v) to avoid any potential vehicle-induced toxicity to the cells. Cells were cultured in 96-well plates and allowed to reach confluence. The tested compounds were dissolved in DMSO at a maximum concentration of 0.4% (v/v) and immediately diluted with fresh media. The cells were then incubated with varying concentrations of the Re1–Re9 for 48 h at 37 °C. […] The absorbance at 570 nm was measured using a microplate reader (FLUOstar Omega).

A2780 = test: MTT antiproliferative activity in A2780 cells; assay type: cell-based, human; settings: MTT test, 48 h of treatment
Procedure: as §1

BGM = test: MTT test in nontumorigenic BGM cells; assay type: cell-based, buffalo green monkey; settings: 48 h of treatment, normal cells
Procedure: as §1

A2780 cells [2] = test: Scanning electron microscopy of cell morphology; assay type: cell-based, human; settings: A2780, 24 h
Procedure: A2780 cells were treated with CDDP and Re9 for 24 h. Cells then were fixed with 4% PFA fix solution for 30 min and washed with PBS three times. Sample were dehydrated through a graded series of ethanol (30, 50, 70, 95, and 100%), dried by the tertiary butanol method, and then imaged with a SEM operating at 20.0 kV.

A2780 cells [3] = test: Annexin V-FITC/PI dual staining, flow cytometry; assay type: cell-based, human; settings: 10 μM, 24 h
Procedure: The annexin V/PI assay was performed following the instructions provided by the manufacturer (Roche). A2780 cells were seeded in 12-well plates at a density of 3 × 10^5 cells/well and incubated overnight. […] After the treatment, the cells were collected and stained with annexin V and PI, following the procedure mentioned earlier. The staining was carried out at room temperature for 15 min in the absence of light, and the samples were immediately analyzed using flow cytometry (FACSCalibur Beckton Dickinson) with an excitation wavelength of 488 nm. The absorbance at 488 nm of compound Re9 was considered negligible. The data obtained from the assay were analyzed using FlowJo Software (TreeStar).

A2780 cells [4] = test: DNA damage by pH2AX staining, flow cytometry; assay type: cell-based, human; settings: A2780, 24 h
Procedure: DNA damage was evaluated by flow cytometry in A2780 cells. […] Cells were then collected by trypsinization, washed with PBS, and fixed in 200 μL 0.2% PFA for 5 min. After fixation, cells were pelleted, suspended in a 3% FBS solution containing anti phospho-H2AX ([…]) FITC-conjugated monoclonal antibody (CR55T33, eBioscience) at a concentration of 0.6 μg/mL, and incubated for 2 h at room temperature in the dark. Analysis of stained cells was carried out using a Becton Dickinson FACSCalibur flow cytometer with 10,000 acquisitions per sample, registering the FL1-H channel (λexc = 488 nm). Two independent experiments, each with n = 2, were conducted.

C. elegans strain MT2124 = assay type: in vivo, Caenorhabditis elegans
From the text: Caenorhabditis elegans strains JK1466 [gld-1(q485)/dpy-5(e61) unc-13(e51)] and MT2124 [let-60(n1046)] were kindly donated by the Caenorhabditis Genetic Center (CGC, Saint Paul, Minnesota, United States), which is funded by the “NIH Office of Research Infrastructure Programs” (P40 OD010440). The strains were maintained and cultured following the protocols established by Stiernagle.[78]−[80] Synchronous cohorts of C. elegans prepared using the bleach method were used in all the assays.
MT2124 (Muv phenotype) L1 larvae were incubated for 72 h at 20 °C in S basal medium with different concentrations of Re9 (0.1–150 μM) supplemented with E. coli OP50. Antitumoral evaluation was performed following the protocol described by Medina and coauthors with modifications.[81] Ten microliters of a suspension containing young adult nematodes were place in a microscope slide along with 10 μL of sodium azide to reduce its movement. Images of whole worms were taken at 10× magnification using the bright-field microscope. The animals were classified as multivulva (MT) if they had more than one vulva protruding from the […] (Figure 12B) or wild-type if they only had one (WT). Then, the percentage of multivulva animals were calculated with eq 1. [drawing 1] 1
Additionally, the number of vulvas of the multivulva animals were counted. Two independent assays were performed with n ≥ 25 and the statistical significance was estimated by the ANOVA test.

C. elegans strain JK1466 = tested on: C. elegans strain JK1466; parameters: method as in earlier work; settings: ref "Recent studies"; cited from earlier work
wild-type C. elegans = tested on: wild-type C. elegans; parameters: method as in PMID 29752286; settings: 100 μM, cited from earlier work

CCCCCC[C@H]1C(=O)O[C@H](C)[C@H](NC(=O)c2cccc(NC=O)c2O)C(=O)O[C@@H](C)[C@@H]1OC(=O)CC(C)C [antimycin A, Antimycin A]
mitochondrial membrane potential (MMP) levels (A2780 cells [1]): significant decrease in MMP levels

N.N.[Cl][Pt][Cl] [cisplatin]
IC50 (HeLa): 23.3 ± 2 µM | IC50 (A2780): 2900 ± 400 nM | IC50 (BGM): 6.8 ± 0.9 µM | cell death type from SEM morphology (A2780 cells [2]): apoptosis | Q2 cells (annexin V+/PI+, late apoptotic or pyroptotic) (A2780 cells [3]): 16.9% | Q3 cells (annexin V+/PI–, early apoptotic) (A2780 cells [3]): 13.8% | DNA damage (pH2AX staining) (A2780 cells [4]): significantly contributed to the induction of DNA damage | reduction of MT phenotypic incidence (C. elegans strain MT2124; 50 μM): 58.2% | reduction of the number of vulvas (C. elegans strain MT2124; 50 μM): 52% | MT (multivulva animals) (C. elegans strain MT2124; 50 μM, 72 h): 34.62% | WT (wild-type nematodes) (C. elegans strain MT2124; 50 μM, 72 h): 65.38% | n° vulvas (C. elegans strain MT2124; 50 μM, multivulva phenotype nematodes): 1.40 | effect of concentrations above 50 μM on the nematodes (C. elegans strain MT2124; in vivo): developmental arrest | reduction of tumor size (C. elegans strain JK1466): 48% | progeny, share of the expected brood (wild-type C. elegans; L4 animals): 10% | reduction of animal size (wild-type C. elegans; wild-type larvae, 48 h): 75% | development stage (wild-type C. elegans; wild-type, 48 h): L2 stage
